Assay results taken from US11285140B2, “Piperidin-4-yl azetidine derivatives as JAK1 inhibitors” (Incyte Corporation, priority 2010, dated 2022).

What was measured:
Assay type in all cases: biochemical
[1] = target: human Jak2 (a.a. 828-1132) (Homo sapiens (Human), UniProt O60674); test: In vitro JAK kinase assay (HTRF, phosphorylation of biotinylated peptide), JAK2; conditions: measured at 1 mM ATP
Procedure: (§1) Compounds herein were tested for inhibitory activity of JAK targets according to the following in vitro assay described in Park et al., Analytical Biochemistry 1999, 269, 94-104. The catalytic domains of human JAK1 (a.a. 837-1142), Jak2 (a.a. 828-1132) and Jak3 (a.a. 781-1124) with an N-terminal His tag were expressed using baculovirus in insect cells and purified. The catalytic activity of JAK1, JAK2 or JAK3 was assayed by measuring the phosphorylation of a biotinylated peptide. The phosphorylated peptide was detected by homogenous time resolved fluorescence (HTRF). […] Reactions were carried out at room temperature for 1 hr and then stopped with 20 μL 45 mM EDTA, 300 nM SA-APC, 6 nM Eu-Py20 in assay buffer (Perkin Elmer, Boston, Mass.). Binding to the Europium labeled antibody took place for 40 minutes and HTRF signal was measured on a Fusion plate reader (Perkin Elmer, Boston, Mass.).

[2] = target: human JAK1 (a.a. 837-1142); test: In vitro JAK kinase assay (HTRF, phosphorylation of biotinylated peptide), JAK1; conditions: measured at 1 mM ATP; JAK2 IC50 / JAK1 IC50
Procedure: as §1

[3] = target: human JAK1 (a.a. 837-1142) (Homo sapiens, UniProt P23458); test: as above; conditions: measured at 1 mM ATP
Procedure: as §1

Chain of human Jak2 (a.a. 828-1132) (O60674 828-1132): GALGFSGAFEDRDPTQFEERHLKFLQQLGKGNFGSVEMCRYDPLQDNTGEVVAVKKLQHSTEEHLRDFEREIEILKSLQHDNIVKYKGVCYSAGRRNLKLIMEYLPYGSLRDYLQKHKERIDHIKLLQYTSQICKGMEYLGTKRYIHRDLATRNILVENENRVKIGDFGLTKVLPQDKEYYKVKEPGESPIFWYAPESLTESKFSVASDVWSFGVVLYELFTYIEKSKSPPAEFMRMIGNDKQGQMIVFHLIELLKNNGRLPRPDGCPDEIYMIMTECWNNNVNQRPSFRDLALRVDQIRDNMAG

Compound	IC50 [1] [nM]	IC50 Ratio JAK2/JAK1 [2]	IC50 [3] [nM]
4-{3-(cyanomethyl)-3-[4-(7H-pyrrolo[2,3- d]pyrimidin-4-yl)-1H-pyrazol-1- yl]azetidin-1-yl}-N-(2-methylphenyl) piperidine-1-carboxamide [Example 185]	10 to 50	9.5	≤ 5
N#CCC1(n2cc(-c3ncnc4[nH]ccc34)cn2)CN(C2CCN(Cc3ccc(F)cc3F)CC2)C1 [Example 217, {1-[1-(2,4-difluorobenzyl)piperidin-4-yl]-3-[4-(7H-pyrrolo[2,3-d]pyrimidin-4-yl)-1H-pyrazol-1-yl]azetidin-3-yl}acetonitrile]	10 to 50	5.8	5 to 20
4-{3-(cyanomethyl)-3-[4-(7H-pyrrolo[2,3- d]pyrimidin-4-yl)-1H-pyrazol-1- yl]azetidin-1-yl}-N-(2,5-difluorophenyl) piperidine-1-carboxamide [Example 174]	≤ 10	7.1	≤ 5
4-{3-(cyanomethyl)-3-[3-(7H-pyrrolo[2,3- d]pyrimidin-4-yl)-1H-pyrrol-1- yl]azetidin-1-yl}-N-[4- (trifluoromethyl)pyridin-3-yl]piperidine- 1-carboxamide [Example 165]	50 to 100	10.4	5 to 20
N#CCC1(n2cc(-c3ncnc4[nH]ccc34)cn2)CN(C2CCN(C(=O)C3Cc4ccccc4C3)CC2)C1 [Example 99, {1-[1-(2,3-dihydro-1H-inden-2-ylcarbonyl)piperidin-4-yl]-3-[4-(7H-pyrrolo[2,3-d]pyrimidin-4-yl)-1H-pyrazol-1-yl]azetidin-3-yl}acetonitrile]	10 to 50	5.6	5 to 20
CC(C)(C)C(=O)Nc1cc(CN2CCC(N3CC(CC#N)(n4cc(-c5ncnc6[nH]ccc56)cn4)C3)CC2)ccn1 [Example 235, N-{4-[(4-{3-(cyanomethyl)-3-[4-(7H-pyrrolo[2,3-d]pyrimidin-4-yl)-1H-pyrazol-1-yl]azetidin-1-yl}piperidin-1-yl)methyl]pyridin-2-yl}-2,2-dimethylpropanamide]	10 to 50	2.5	5 to 20
4-{3-(cyanomethyl)-3-[4-(7H-pyrrolo[2,3- d]pyrimidin-4-yl)-1H-pyrazol-1- yl]azetidin-1-yl}-N-(3,5-difluorophenyl) piperidine-1-carboxamide [Example 175]	≤ 10	3.6	≤ 5
